Assay results as given in PMC5693303 (Journal of medicinal chemistry, 2016).
Marks after values point to notes of the source that are not given here.

Key:
KOR [1] = target: KOR (Homo sapiens, UniProt P41145); test: [^35S]GTPγS assay, agonist mode; assay type: biochemical; conditions: 10 µM, KOR-CHO cells, compared to vehicle
KOR [2] = target: KOR (Cavia porcellus, UniProt P41144); test: GPI/LMMP assay, inhibition of electrically stimulated muscle contraction; assay type: cell-based, guinea pig
hMOR = hMOR (Homo sapiens, UniProt P35372); test: Radioligand competition binding, [^3H]diprenorphine or [^3H]DAMGO; conditions: [^3H]diprenorphine, Kd = 2.81 nM; NC = no competition
[3] = Tail flick test, 52 °C water, compound alone
KOR [4] = target: KOR (Mus musculus, UniProt P33534); test: Tail flick test, pretreatment before KOR agonist 17; assay type: in vivo, mice; conditions: 10 µg in 5 µL l.p., 15 min before 17 (10 µg)
KOR (Mus musculus, UniProt P33534), sequence (P33534 whole entry): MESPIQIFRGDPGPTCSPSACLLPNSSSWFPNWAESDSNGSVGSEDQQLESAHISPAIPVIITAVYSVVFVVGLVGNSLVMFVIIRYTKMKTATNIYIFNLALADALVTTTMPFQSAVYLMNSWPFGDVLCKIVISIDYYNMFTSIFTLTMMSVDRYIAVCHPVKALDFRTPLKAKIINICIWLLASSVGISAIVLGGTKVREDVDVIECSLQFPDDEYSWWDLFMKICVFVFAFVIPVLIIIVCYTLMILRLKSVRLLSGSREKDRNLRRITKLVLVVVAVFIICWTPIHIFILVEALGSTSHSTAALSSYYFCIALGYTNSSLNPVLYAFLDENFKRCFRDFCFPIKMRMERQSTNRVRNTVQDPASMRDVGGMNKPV

KOR (Cavia porcellus, UniProt P41144), sequence (P41144 whole entry): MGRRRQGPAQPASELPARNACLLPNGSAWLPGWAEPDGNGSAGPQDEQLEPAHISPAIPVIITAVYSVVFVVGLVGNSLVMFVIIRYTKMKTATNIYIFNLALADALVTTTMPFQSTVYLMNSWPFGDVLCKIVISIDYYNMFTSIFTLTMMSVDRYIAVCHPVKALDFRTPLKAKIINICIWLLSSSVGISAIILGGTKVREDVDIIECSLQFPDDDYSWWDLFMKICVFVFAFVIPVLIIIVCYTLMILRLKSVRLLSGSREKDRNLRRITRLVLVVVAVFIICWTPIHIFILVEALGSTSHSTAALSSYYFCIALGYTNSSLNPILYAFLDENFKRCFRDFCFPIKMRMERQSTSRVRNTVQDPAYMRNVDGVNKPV
KOR (Homo sapiens, UniProt P41145), sequence (P41145 whole entry): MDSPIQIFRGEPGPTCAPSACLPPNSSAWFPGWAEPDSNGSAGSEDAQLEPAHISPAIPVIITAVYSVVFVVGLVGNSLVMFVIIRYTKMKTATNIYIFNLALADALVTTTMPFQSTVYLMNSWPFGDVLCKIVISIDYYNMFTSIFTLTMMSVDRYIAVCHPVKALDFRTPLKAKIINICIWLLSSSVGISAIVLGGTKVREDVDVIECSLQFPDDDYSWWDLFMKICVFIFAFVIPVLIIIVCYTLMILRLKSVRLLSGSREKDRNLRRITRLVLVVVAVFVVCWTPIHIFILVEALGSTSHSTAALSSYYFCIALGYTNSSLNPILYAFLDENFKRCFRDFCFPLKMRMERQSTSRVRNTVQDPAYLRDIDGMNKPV
hMOR, sequence (P35372 whole entry): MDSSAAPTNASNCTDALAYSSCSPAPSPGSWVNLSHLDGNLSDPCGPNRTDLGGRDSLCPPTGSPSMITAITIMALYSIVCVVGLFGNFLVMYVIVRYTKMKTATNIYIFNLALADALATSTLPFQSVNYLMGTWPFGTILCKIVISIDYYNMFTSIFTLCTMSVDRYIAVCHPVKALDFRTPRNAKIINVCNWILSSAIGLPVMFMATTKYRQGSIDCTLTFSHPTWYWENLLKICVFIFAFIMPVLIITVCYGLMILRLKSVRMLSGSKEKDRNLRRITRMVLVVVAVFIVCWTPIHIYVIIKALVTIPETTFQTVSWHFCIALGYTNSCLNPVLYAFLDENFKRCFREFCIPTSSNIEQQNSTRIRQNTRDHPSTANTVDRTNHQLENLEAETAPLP

## Ac-YGGFLRIRPK-NH2 [compound 5]
KOR [1]
  KOR activation: did not show KOR activation
KOR [2]; 1 µM test compound, compared to average signal 3 min prior to drug
  percent of agonist activity: 0% ^b
KOR [2]; in words
  agonist response in GPI/LMMP: did not show significant responses

## Ac-YGPFLRIRPK-NH2 [compound 8]
hMOR
  Ki: no competition

## H-YGGFLRIRPK-NH2 [compound 3]
KOR [1]
  KOR activation: significant activation

## H-YGPFLRIRPK-NH2 [compound 7]
[3]; 10 µg in 5 µL i.t., 30 min
  elevation of TWL, % of max response: 39.45 ± 6.95%
[3]; 0.1, 1.0 and 10 µg in 5 µL i.t., compared to vehicle
  tail withdrawal latency (antinociceptive effect): significantly elevated tail withdrawal latency
KOR [4]
  blockade of antinociceptive effect of 17: significantly blocked
